Assay results taken from ChEMBL document CHEMBL4823307, “Discovery of benzimidazole derivatives as potent and selective aldehyde dehydrogenase 1A1 (ALDH1A1) inhibitors with glucose consumption improving activity” (Bioorg Med Chem, 2021).
The source made the active and inactive calls. No cut-off for these calls is given here.

target: T1, Aldehyde dehydrogenase 1A1 (Homo sapiens, UniProt P00352); assay: Inhibition of human ALDH1A1 assessed as NADH formation using propionaldehyde as substrate by spectrophotometry; conditions: not given
T1 sequence (P00352 whole entry): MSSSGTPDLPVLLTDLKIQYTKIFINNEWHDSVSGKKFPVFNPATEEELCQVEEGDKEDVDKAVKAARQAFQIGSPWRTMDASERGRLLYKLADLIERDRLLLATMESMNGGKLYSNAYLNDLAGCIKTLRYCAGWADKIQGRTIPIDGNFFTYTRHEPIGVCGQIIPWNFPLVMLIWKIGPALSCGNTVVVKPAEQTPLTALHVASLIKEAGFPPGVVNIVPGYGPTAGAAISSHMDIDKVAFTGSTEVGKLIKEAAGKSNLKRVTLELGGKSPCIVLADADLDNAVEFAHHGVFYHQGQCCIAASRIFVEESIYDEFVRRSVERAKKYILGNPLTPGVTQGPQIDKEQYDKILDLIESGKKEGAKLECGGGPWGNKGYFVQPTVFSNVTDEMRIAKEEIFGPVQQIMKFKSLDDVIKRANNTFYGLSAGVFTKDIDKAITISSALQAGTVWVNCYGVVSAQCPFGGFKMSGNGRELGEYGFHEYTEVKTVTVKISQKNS

Row | IC50 [nM] | SMILES
1 | 458 | Cc1cccc(Cn2c(CN3CCN(C(=O)C(C)C)CC3)nc3ccccc32)c1
2 | 626 | CCC(=O)N1CCN(Cc2nc3ccccc3n2Cc2cccc(C)c2)CC1

target: T2, Aldehyde dehydrogenase 1A1 (Homo sapiens) (UniProt P00352); assay: Inhibition of human ALDH1A1 assessed as NADH formation using propionaldehyde as substrate at 10 uM by spectrophotometry; conditions: not given
T2 sequence (whole entry): T1 sequence (P00352 whole entry)

Row | inhibition [%] | SMILES
3 | 27.1 | O=C(C1CC1)N1CCN(Cc2nc3ccccc3n2Cc2cccc(F)c2)CC1
4 | 67.5 | Cc1cccc(Cn2c(CN3CCN(C(=O)C4CCCC4)CC3)nc3ccccc32)c1
5 | 64.9 | Cc1ccc(C(=O)N2CCN(Cc3nc4ccccc4n3Cc3cccc(C)c3)CC2)cc1
6 | 87.2 | Cc1cccc(Cn2c(CN3CCN(C(=O)C(C)C)CC3)nc3ccccc32)c1
7 | 24.3 | Cc1cccc(Cn2c(CN3CCN(C(=O)c4ccc([N+](=O)[O-])cc4)CC3)nc3ccccc32)c1
8 | 27.1 | Cc1cccc(Cn2c(CN3CCN(C(=O)c4ccc(F)cc4)CC3)nc3ccccc32)c1
9 | 60.8 | Cc1cccc(Cn2c(CN3CCN(C(=O)c4cccs4)CC3)nc3ccccc32)c1
10 | 73.2 | Cc1cccc(Cn2c(CN3CCN(C(=O)c4ccco4)CC3)nc3ccccc32)c1
11 | 55.5 | COc1ccc(C(=O)N2CCN(Cc3nc4ccccc4n3Cc3cccc(C)c3)CC2)cc1
12 | 25.8 | Cc1cccc(Cn2c(CN3CCN(C(=O)c4ccc(Br)cc4)CC3)nc3ccccc32)c1
13 | 70.3 | CC(=O)N1CCN(Cc2nc3ccccc3n2Cc2cccc(C)c2)CC1
14 | 23.9 | O=C(C1CC1)N1CCN(Cc2nc3ccccc3n2Cc2ccccc2)CC1
15 | 22.9 | Cc1cccc(Cn2c(CN3CCN(C(=O)c4ccc(C(F)(F)F)cc4)CC3)nc3ccccc32)c1
16 | 20.6 | Cc1cccc(Cn2c(CN3CCN(C(=O)c4ccncc4)CC3)nc3ccccc32)c1
17 | 44.4 | COc1cccc(Cn2c(CN3CCN(C(=O)C4CC4)CC3)nc3ccccc32)c1
18 | 67.6 | Cc1cccc(Cn2c(CN3CCN(C(=O)c4ccc(C(C)C)cc4)CC3)nc3ccccc32)c1
19 | 60.9 | Cc1cccc(Cn2c(CN3CCN(C(=O)c4ccccc4)CC3)nc3ccccc32)c1
20 | 85.1 | CCC(=O)N1CCN(Cc2nc3ccccc3n2Cc2cccc(C)c2)CC1
21 | 31.9 | Cc1cccc(Cn2c(CN3CCN(C(=O)C4CCCCC4)CC3)nc3ccccc32)c1
22 | 51.5 | Cc1ccc(Cn2c(CN3CCN(C(=O)C4CC4)CC3)nc3ccccc32)cc1
23 | 69.1 | Cc1cccc(Cn2c(CN3CCN(C(=O)C4CCC4)CC3)nc3ccccc32)c1
24 | 79 | CCCC(=O)N1CCN(Cc2nc3ccccc3n2Cc2cccc(C)c2)CC1
25 | 71.4 | Cc1cccc(Cn2c(CN3CCN(C(=O)CC(C)C)CC3)nc3ccccc32)c1
26 | 67 | CCc1ccc(C(=O)N2CCN(Cc3nc4ccccc4n3Cc3cccc(C)c3)CC2)cc1
27 | 23.2 | Cc1cccc(Cn2c(CN3CCN(C(=O)c4ccc(Cl)cc4)CC3)nc3ccccc32)c1
28 | 20.8 | Cc1cccc(Cn2c(CN3CCN(C(=O)c4ccc(C#N)cc4)CC3)nc3ccccc32)c1
29 | 24.5 | Cc1cccc(Cn2c(CN3CCN(C(=O)c4cccnc4)CC3)nc3ccccc32)c1

The remaining lines, values behind:

Row | SMILES | inhibition [%]
30 | CC(C)CCn1c(NC2CCN(C(=O)C3CC3)CC2)nc2ccccc21 | 10.8
31 | CCn1c(CN2CCN(C(=O)C3CC3)CC2)nc2ccccc21 | 20.8
32 | Cc1ccccc1Cn1c(CN2CCN(C(=O)C3CC3)CC2)nc2ccccc21 | 29.1
33 | CCCCn1c(CN2CCN(C(=O)C3CC3)CC2)nc2ccccc21 | 18.2
34 | Cc1cccc(Cn2c(OC3CCN(C(=O)c4ccco4)CC3)nc3ccccc32)c1 | 68.3
35 | CC(C)Cn1c(CN2CCN(C(=O)C3CC3)CC2)nc2ccccc21 | 13.1
36 | CC(C)CCn1c(OC2CCN(C(=O)c3ccco3)CC2)nc2ccccc21 | 30.8
37 | CC(C)CCn1c(CN2CCN(C(=O)C3CC3)CC2)nc2ccccc21 | 70
38 | CC(C)CCn1c(CN2CCN(C(=O)c3ccco3)CC2)nc2ccccc21 | 42.1
39 | O=C(C1CC1)N1CCN(Cc2nc3ccccc3n2Cc2ccccc2C(F)(F)F)CC1 | 56.3
40 | CC(C)CCn1c(OC2CCN(C(=O)C3CC3)CC2)nc2ccccc21 | 56.4
41 | Cc1cccc(Cn2c(NC3CCN(C(=O)C4CC4)CC3)nc3ccccc32)c1 | 49.1
42 | O=C(C1CC1)N1CCN(Cc2nc3ccccc3n2CC2CC2)CC1 | 21.2
43 | Cc1cccc(Cn2c(OC3CCN(C(=O)C4CC4)CC3)nc3ccccc32)c1 | 80.6
44 | Cc1cccc(Cn2c(NC3CCN(C(=O)c4ccco4)CC3)nc3ccccc32)c1 | 27.9
45 | O=C(C1CC1)N1CCN(Cc2nc3ccccc3n2Cc2ccc(F)cc2)CC1 | 32.7
46 | O=C(C1CC1)N1CCN(Cc2nc3ccccc3n2Cc2ccccc2F)CC1 | 40.7
47 | O=C(C1CC1)N1CCN(Cc2nc3ccccc3n2Cc2ccc(Cl)cc2)CC1 | 56.6
48 | O=C(C1CC1)N1CCN(Cc2nc3ccccc3n2Cc2ccc(C(F)(F)F)cc2)CC1 | 37
49 | O=C(C1CC1)N1CCN(Cc2nc3ccccc3n2CC2CCCC2)CC1 | 44.5

target: T3, Retinal dehydrogenase 2 (Homo sapiens, UniProt O94788); assay: Inhibition of human ALDH1A2 assessed as NADH formation using propionaldehyde as substrate by spectrophotometry; conditions: not given
T3 sequence (O94788 whole entry): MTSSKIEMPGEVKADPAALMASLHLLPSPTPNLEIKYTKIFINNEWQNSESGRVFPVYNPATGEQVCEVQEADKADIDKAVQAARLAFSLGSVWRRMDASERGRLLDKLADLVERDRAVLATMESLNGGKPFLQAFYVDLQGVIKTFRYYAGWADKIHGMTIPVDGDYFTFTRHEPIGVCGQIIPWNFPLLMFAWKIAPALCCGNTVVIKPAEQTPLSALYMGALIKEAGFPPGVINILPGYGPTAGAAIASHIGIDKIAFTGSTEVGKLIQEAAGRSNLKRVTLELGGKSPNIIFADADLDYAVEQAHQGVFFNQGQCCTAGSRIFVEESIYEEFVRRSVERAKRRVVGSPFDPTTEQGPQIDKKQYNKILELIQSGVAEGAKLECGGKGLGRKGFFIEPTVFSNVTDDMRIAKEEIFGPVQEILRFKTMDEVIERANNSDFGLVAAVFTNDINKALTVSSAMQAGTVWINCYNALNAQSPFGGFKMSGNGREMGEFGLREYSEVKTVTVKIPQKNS

Row | IC50 [nM] | SMILES
50 | 2780 | Cc1cccc(Cn2c(CN3CCN(C(=O)C(C)C)CC3)nc3ccccc32)c1
51 | 2090 | CCC(=O)N1CCN(Cc2nc3ccccc3n2Cc2cccc(C)c2)CC1

target: T4, Retinaldehyde dehydrogenase 3 (Homo sapiens, UniProt P47895); assay: Inhibition of human ALDH1A3 assessed as NADH formation using propionaldehyde as substrate by spectrophotometry; conditions: not given
T4 sequence (P47895 whole entry): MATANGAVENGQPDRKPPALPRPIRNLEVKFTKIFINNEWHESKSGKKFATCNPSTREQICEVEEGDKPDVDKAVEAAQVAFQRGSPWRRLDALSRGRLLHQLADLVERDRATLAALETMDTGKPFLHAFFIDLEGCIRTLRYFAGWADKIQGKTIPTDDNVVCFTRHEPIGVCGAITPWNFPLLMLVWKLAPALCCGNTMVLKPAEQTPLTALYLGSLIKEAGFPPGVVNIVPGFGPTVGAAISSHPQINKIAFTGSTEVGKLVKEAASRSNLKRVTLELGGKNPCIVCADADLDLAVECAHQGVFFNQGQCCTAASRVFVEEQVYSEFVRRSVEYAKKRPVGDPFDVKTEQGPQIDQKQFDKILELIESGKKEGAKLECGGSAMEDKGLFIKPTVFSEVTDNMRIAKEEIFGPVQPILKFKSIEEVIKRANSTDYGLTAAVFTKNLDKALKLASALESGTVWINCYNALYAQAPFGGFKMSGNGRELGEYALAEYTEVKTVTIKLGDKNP

Row | IC50 [nM] | SMILES
52 | 2880 | Cc1cccc(Cn2c(CN3CCN(C(=O)C(C)C)CC3)nc3ccccc32)c1
53 | 1680 | CCC(=O)N1CCN(Cc2nc3ccccc3n2Cc2cccc(C)c2)CC1

target: T5, Aldehyde dehydrogenase, mitochondrial (Homo sapiens, UniProt P05091); assay: Inhibition of human ALDH2 assessed as NADH formation using propionaldehyde as substrate by spectrophotometry; conditions: not given
T5 sequence (P05091 whole entry): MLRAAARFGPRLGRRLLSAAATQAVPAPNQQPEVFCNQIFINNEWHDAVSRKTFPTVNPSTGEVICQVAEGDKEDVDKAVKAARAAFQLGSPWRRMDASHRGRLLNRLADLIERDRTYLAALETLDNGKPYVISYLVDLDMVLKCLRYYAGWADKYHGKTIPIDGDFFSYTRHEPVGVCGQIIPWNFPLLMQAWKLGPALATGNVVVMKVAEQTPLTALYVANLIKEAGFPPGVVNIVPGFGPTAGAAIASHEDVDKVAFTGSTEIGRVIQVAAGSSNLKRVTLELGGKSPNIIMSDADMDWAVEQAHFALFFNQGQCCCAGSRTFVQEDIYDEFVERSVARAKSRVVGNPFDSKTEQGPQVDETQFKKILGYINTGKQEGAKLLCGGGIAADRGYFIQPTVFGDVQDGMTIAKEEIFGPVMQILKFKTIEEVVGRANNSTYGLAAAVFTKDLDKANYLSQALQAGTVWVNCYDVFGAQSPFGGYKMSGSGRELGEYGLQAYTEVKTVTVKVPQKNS

Row | IC50 [nM] | SMILES
54 | 2270 | Cc1cccc(Cn2c(CN3CCN(C(=O)C(C)C)CC3)nc3ccccc32)c1
55 | 3230 | CCC(=O)N1CCN(Cc2nc3ccccc3n2Cc2cccc(C)c2)CC1

tested on: not listed separately; assay: Cytotoxicity against human HepG2 cells assessed as cell viability at 0.1 uM incubated for 24 hrs by MTT assay relative to control; assay type: cell-based; conditions: read-out: Activity

Row | SMILES | viability at 24 h, 0.1 µM [%]
56 | Cc1cccc(Cn2c(CN3CCN(C(=O)C(C)C)CC3)nc3ccccc32)c1 | 98.4
57 | CCC(=O)N1CCN(Cc2nc3ccccc3n2Cc2cccc(C)c2)CC1 | 89.7
58 | CC(C)CCn1c(CN2CCN(C(=O)c3ccco3)CC2)nc2c1c(=O)n(C)c(=O)n2C | 100

tested on: not listed separately; assay: Cytotoxicity against human HepG2 cells assessed as cell viability at 1 uM incubated for 24 hrs by MTT assay relative to control; assay type: cell-based; conditions: read-out: Activity

Row | SMILES | viability at 24 h, 1 µM [%]
59 | Cc1cccc(Cn2c(CN3CCN(C(=O)C(C)C)CC3)nc3ccccc32)c1 | 93.7
60 | CCC(=O)N1CCN(Cc2nc3ccccc3n2Cc2cccc(C)c2)CC1 | 91.8
61 | CC(C)CCn1c(CN2CCN(C(=O)c3ccco3)CC2)nc2c1c(=O)n(C)c(=O)n2C | 100

tested on: not listed separately; assay: Cytotoxicity against human HepG2 cells assessed as cell viability at 10 uM incubated for 24 hrs by MTT assay relative to control; assay type: cell-based; conditions: read-out: Activity

Row | SMILES | viability at 24 h, 10 µM [%]
62 | Cc1cccc(Cn2c(CN3CCN(C(=O)C(C)C)CC3)nc3ccccc32)c1 | 85.7
63 | CCC(=O)N1CCN(Cc2nc3ccccc3n2Cc2cccc(C)c2)CC1 | 85.4
64 | CC(C)CCn1c(CN2CCN(C(=O)c3ccco3)CC2)nc2c1c(=O)n(C)c(=O)n2C | 98.2

tested on: HepG2; assay: Cytotoxicity against human HepG2 cells assessed as morphological changes at 0.1 to 10 uM incubated for 24 hrs; assay type: cell-based; conditions: hepg2, 24 h, dose 0.1-10 µM

Row | SMILES | Activity
65 | Cc1cccc(Cn2c(CN3CCN(C(=O)C(C)C)CC3)nc3ccccc32)c1 | Non-Toxic
66 | CCC(=O)N1CCN(Cc2nc3ccccc3n2Cc2cccc(C)c2)CC1 | Non-Toxic

tested on: HepG2; assay: Increase in glucose consumption in human HepG2 cells at 10 uM by glucose oxidase assay; assay type: functional; conditions: not given

Row | SMILES | Activity
67 | Cc1cccc(Cn2c(CN3CCN(C(=O)C(C)C)CC3)nc3ccccc32)c1 | 20%
68 | CCC(=O)N1CCN(Cc2nc3ccccc3n2Cc2cccc(C)c2)CC1 | 15%
69 | CC(C)CCn1c(CN2CCN(C(=O)c3ccco3)CC2)nc2c1c(=O)n(C)c(=O)n2C | inactive
